Test results reported in patent US20210254272A1, “TEXTILES HAVING ANTIMICROBIAL PROPERTIES” (Livinguard AG, priority 2015, published 2021).

Columns and labels:
[1] = Leaching test: 100 g fabric soaked in 10 liters stagnant distilled water, 3 days (72 hours); type: physicochemical; conditions: for Leaching of active ingredients / Leaching Test-Leaching of active ingredients: pad process; for Leaching of active ingredients: cured 180° C. 2 min; for Leaching Test-Leaching of active ingredients: 2 min
Protocol: (§1) The test procedure for leaching was as follows: 100 g (grams) of fabric as well as control fabrics were soaked in 10 liters of stagnant distilled water in a closed wide mouth jar. After 3 days (72 hours), the water samples were tested for leached substances as per standard analytical methods.
as §1, with “methods. A weight of 100 g fabric was chosen because in the preferred embodiment of the water filter as described further below, each filter comprises a strip of fabric with 210 g/m^2, 3 meters long and 0.16 meters wide, which corresponds to 100 g of fabric.” for “methods.”

[2] = Leaching: 10 grams fabric in 100 milliliters distilled water, 7 days, GC-MS; type: physicochemical
Protocol: To test for a potential leaching of the antimicrobial agents fixed to the textile material, the following test was performed. A test fabric of polyester 65%/cotton 35% with 210 g/m2 was treated with polyhexamethylenebiguanide (PHMB) 0.5%, silver chloride 0.075%, octadecylaminomethyl trihydroxysilylpropyl ammonium chloride (organosilane) 0.4%, and propiconazole 0.5%
The treated textile material was put into distilled water at a ratio of 1:10. Specifically, a fabric of 10 grams was soaked in 100 milliliters of distilled water. The fabric was incubated in the water for 7 days at room temperature, i.e. between 21 and 25° C.
Following said incubation time, the fabric was removed from the water and the exposed water was tested for the presence of the above five active ingredients using gas chromatography-mass spectrometry (GC-MS).

CCCCCCCCCCCCCCCCCC[N+](C)(C)CCC[Si](OC)(OC)OC [Organosilane, dimethyloctadecyl[3-(trimethoxysilyl)propyl] ammonium chloride]
Leaching of active ingredients (in ppm) ([1]; exhaust 80° C., 60 min, dosage 1% o.w.f (test up to 5% o.w.f)): 3 ppm
Leaching of active ingredients (in ppm) ([1]; exhaust 80° C., 60 min, dosage 2% o.w.f): 22 ppm
Leaching of active ingredients (in ppm) ([1]; exhaust 80° C., 60 min, dosage 3% o.w.f): 38 ppm
Leaching of active ingredients (in ppm) ([1]; exhaust 80° C., 60 min, dosage 4% o.w.f): 52 ppm
Leaching of active ingredients (in ppm) ([1]; exhaust 80° C., 60 min, dosage 5% o.w.f): 72 ppm
Leaching of active ingredients (in ppm) ([1]; exhaust 80 ° C., solution dosage 1% o.w.f, process time 10 min): 40 ppm
Leaching of active ingredients (in ppm) ([1]; exhaust 80 ° C., solution dosage 1% o.w.f, process time 20 min): 29 ppm
Leaching of active ingredients (in ppm) ([1]; exhaust 80 ° C., solution dosage 1% o.w.f, process time 30 min): 25 ppm
Leaching of active ingredients (in ppm) ([1]; exhaust 80 ° C., solution dosage 1% o.w.f, process time 40 min): 18 ppm
Leaching of active ingredients (in ppm) ([1]; exhaust 80 ° C., solution dosage 1% o.w.f, process time 50 min): 15 ppm
Leaching of active ingredients (in ppm) ([1]; exhaust 80 ° C., solution dosage 1% o.w.f, process time 55 min): 6 ppm
Leaching of active ingredients (in ppm) ([1]; exhaust 80 ° C., solution dosage 1% o.w.f, process time 60 min): 2 ppm
Leaching of active ingredients (in ppm) ([1]; exhaust 80 ° C., solution dosage 1% o.w.f, process time 70 min): 3 ppm
Leaching of active ingredients (in ppm) ([1]; exhaust 80 ° C., solution dosage 1% o.w.f, process time 80 min): 4 ppm
Leaching of active ingredients (in ppm) ([1]; exhaust 80 ° C., solution dosage 1% o.w.f, process time 90 min): 7 ppm
limit on the quantity of the agent that can be adhered to the textile in a non-leaching or substantially non-leaching manner ([1]; from Experimental examples I.1 and I.4): about 0.7 % o.w.f.
Leaching of active ingredients ([1]; mixture 1 gm/lit each): 11 ppm
Leaching of active ingredients ([1]; mixture 1 gm/lit each, after Washing): 0.2 ppm
Leaching of active ingredients ([1]; mixture 5 gm/lit each): 22 ppm
Leaching of active ingredients ([1]; mixture 5 gm/lit each, after Washing): 0.5 ppm
Leaching of active ingredients ([1]; mixture 10 gm/lit each): 32 ppm
Leaching of active ingredients ([1]; mixture 10 gm/lit each, after Washing): 0.7 ppm
Leaching Test-Leaching of active ingredients ([1]; single agent 5 gm/lit, curing 120° C.): 8 ppm
Leaching Test-Leaching of active ingredients ([1]; single agent 5 gm/lit, curing 140° C.): 6 ppm
Leaching Test-Leaching of active ingredients ([1]; single agent 5 gm/lit, curing 150° C.): 5 ppm
Leaching Test-Leaching of active ingredients ([1]; single agent 5 gm/lit, curing 160° C.): 3 ppm
Leaching Test-Leaching of active ingredients ([1]; single agent 5 gm/lit, curing 180° C.): 1 ppm
Leaching Test-Leaching of active ingredients ([1]; single agent 10 gm/lit, curing 120° C.): 17 ppm
Leaching Test-Leaching of active ingredients ([1]; single agent 10 gm/lit, curing 140° C.): 13 ppm
Leaching Test-Leaching of active ingredients ([1]; single agent 10 gm/lit, curing 150° C.): 10 ppm
Leaching Test-Leaching of active ingredients ([1]; single agent 10 gm/lit, curing 160° C.): 9 ppm
Leaching Test-Leaching of active ingredients ([1]; single agent 10 gm/lit, curing 180° C.): 1 ppm
Leaching of active ingredient (in ppm) ([1]; solution dosage 0.10% o.w.f, exhaust temperature 40° C., process time 60 min): 0 ppm
Leaching of active ingredient (in ppm) ([1]; solution dosage 0.10% o.w.f, exhaust temperature 60° C., process time 60 min): 0 ppm
Leaching of active ingredient (in ppm) ([1]; solution dosage 0.10% o.w.f, exhaust temperature 65° C., process time 60 min): 0 ppm
Leaching of active ingredient (in ppm) ([1]; solution dosage 0.10% o.w.f, exhaust temperature 70° C., process time 60 min): 0 ppm
Leaching of active ingredient (in ppm) ([1]; solution dosage 0.10% o.w.f, exhaust temperature 75° C., process time 60 min): 0 ppm
Leaching of active ingredient (in ppm) ([1]; solution dosage 0.10% o.w.f, exhaust temperature 80° C., process time 60 min): 0 ppm
Leaching of active ingredient (in ppm) ([1]; solution dosage 0.10% o.w.f, exhaust temperature 85° C., process time 60 min): 1 ppm
Leaching of active ingredient (in ppm) ([1]; solution dosage 0.10% o.w.f, exhaust temperature 90° C., process time 60 min): 2 ppm
Leaching of active ingredient (in ppm) ([1]; solution dosage 0.10% o.w.f, exhaust temperature 95° C., process time 60 min): 3 ppm
Leaching of active ingredient (in ppm) ([1]; solution dosage 0.20% o.w.f, exhaust temperature 40° C., process time 60 min): 0 ppm
Leaching of active ingredient (in ppm) ([1]; solution dosage 0.20% o.w.f, exhaust temperature 60° C., process time 60 min): 0 ppm
Leaching of active ingredient (in ppm) ([1]; solution dosage 0.20% o.w.f, exhaust temperature 65° C., process time 60 min): 0 ppm
Leaching of active ingredient (in ppm) ([1]; solution dosage 0.20% o.w.f, exhaust temperature 70° C., process time 60 min): 0 ppm
Leaching of active ingredient (in ppm) ([1]; solution dosage 0.20% o.w.f, exhaust temperature 75° C., process time 60 min): 0 ppm
Leaching of active ingredient (in ppm) ([1]; solution dosage 0.20% o.w.f, exhaust temperature 80° C., process time 60 min): 0 ppm
Leaching of active ingredient (in ppm) ([1]; solution dosage 0.20% o.w.f, exhaust temperature 85° C., process time 60 min): 3 ppm
Leaching of active ingredient (in ppm) ([1]; solution dosage 0.20% o.w.f, exhaust temperature 90° C., process time 60 min): 3 ppm
Leaching of active ingredient (in ppm) ([1]; solution dosage 0.20% o.w.f, exhaust temperature 95° C., process time 60 min): 4 ppm
Leaching of active ingredient (in ppm) ([1]; solution dosage 0.50% o.w.f, exhaust temperature 40° C., process time 60 min): 0 ppm
Leaching of active ingredient (in ppm) ([1]; solution dosage 0.50% o.w.f, exhaust temperature 60° C., process time 60 min): 2 ppm
Leaching of active ingredient (in ppm) ([1]; solution dosage 0.50% o.w.f, exhaust temperature 65° C., process time 60 min): 1 ppm
Leaching of active ingredient (in ppm) ([1]; solution dosage 0.50% o.w.f, exhaust temperature 70° C., process time 60 min): 1 ppm
Leaching of active ingredient (in ppm) ([1]; solution dosage 0.50% o.w.f, exhaust temperature 75° C., process time 60 min): 1 ppm
Leaching of active ingredient (in ppm) ([1]; solution dosage 0.50% o.w.f, exhaust temperature 80° C., process time 60 min): 1 ppm
Leaching of active ingredient (in ppm) ([1]; solution dosage 0.50% o.w.f, exhaust temperature 85° C., process time 60 min): 4 ppm
Leaching of active ingredient (in ppm) ([1]; solution dosage 0.50% o.w.f, exhaust temperature 90° C., process time 60 min): 5 ppm
Leaching of active ingredient (in ppm) ([1]; solution dosage 0.50% o.w.f, exhaust temperature 95° C., process time 60 min): 6 ppm
Leaching of active ingredient (in ppm) ([1]; solution dosage 0.80% o.w.f, exhaust temperature 40° C., process time 60 min): 0 ppm
Leaching of active ingredient (in ppm) ([1]; solution dosage 0.80% o.w.f, exhaust temperature 60° C., process time 60 min): 3 ppm
Leaching of active ingredient (in ppm) ([1]; solution dosage 0.80% o.w.f, exhaust temperature 65° C., process time 60 min): 3 ppm
Leaching of active ingredient (in ppm) ([1]; solution dosage 0.80% o.w.f, exhaust temperature 70° C., process time 60 min): 2 ppm
Leaching of active ingredient (in ppm) ([1]; solution dosage 0.80% o.w.f, exhaust temperature 75° C., process time 60 min): 1 ppm
Leaching of active ingredient (in ppm) ([1]; solution dosage 0.80% o.w.f, exhaust temperature 80° C., process time 60 min): 1 ppm
Leaching of active ingredient (in ppm) ([1]; solution dosage 0.80% o.w.f, exhaust temperature 85° C., process time 60 min): 5 ppm
Leaching of active ingredient (in ppm) ([1]; solution dosage 0.80% o.w.f, exhaust temperature 90° C., process time 60 min): 6 ppm
Leaching of active ingredient (in ppm) ([1]; solution dosage 0.80% o.w.f, exhaust temperature 95° C., process time 60 min): 8 ppm
Leaching of active ingredient (in ppm) ([1]; solution dosage 1.00% o.w.f, exhaust temperature 40° C., process time 60 min): 0 ppm
Leaching of active ingredient (in ppm) ([1]; solution dosage 1.00% o.w.f, exhaust temperature 60° C., process time 60 min): 6 ppm
Leaching of active ingredient (in ppm) ([1]; solution dosage 1.00% o.w.f, exhaust temperature 65° C., process time 60 min): 6 ppm
Leaching of active ingredient (in ppm) ([1]; solution dosage 1.00% o.w.f, exhaust temperature 70° C., process time 60 min): 3 ppm
Leaching of active ingredient (in ppm) ([1]; solution dosage 1.00% o.w.f, exhaust temperature 75° C., process time 60 min): 2 ppm
Leaching of active ingredient (in ppm) ([1]; solution dosage 1.00% o.w.f, exhaust temperature 80° C., process time 60 min): 1 ppm
Leaching of active ingredient (in ppm) ([1]; solution dosage 1.00% o.w.f, exhaust temperature 85° C., process time 60 min): 7 ppm
Leaching of active ingredient (in ppm) ([1]; solution dosage 1.00% o.w.f, exhaust temperature 90° C., process time 60 min): 9 ppm
Leaching of active ingredient (in ppm) ([1]; solution dosage 1.00% o.w.f, exhaust temperature 95° C., process time 60 min): 10 ppm
Extracted water Conc, ppm [2]: BDL (BDL-below detection limit Detection limit: 1 parts per million (ppm))
